In PMC8304516, “A Fungal Defensin Targets the SARS−CoV−2 Spike Receptor−Binding Domain” (Journal of Fungi, 2021):
Bridge positions count the residues as written; N and C are the ends. Peptide text beside a SMILES is read from it.

What was measured:
Spike RBD (SARS-CoV-2) = Spike RBD (SARS-CoV-2) (UniProt P0DTC2); settings: cited from earlier work
RBD = settings: binding to RBD; cited from earlier work
SARS−CoV−2 Spike RBD = SARS−CoV−2 Spike RBD (Severe acute respiratory syndrome coronavirus 2, UniProt P0DTC2); test: biochemical; format: binding; settings: KD; SD

human beta-defensin 2 (from UniProt O15263)
Kd (Spike RBD (SARS-CoV-2)): 300 nM

human β−defensin 2 [hBD−2]
Kd (RBD): ~300 nM

CC[C@H](C)[C@@H]1NC(=O)[C@H](CO)NC(=O)[C@H](CC(C)C)NC(=O)[C@@H]2CSSC[C@@H](C(=O)NCC(=O)N[C@@H](CCCCN)C(=O)N[C@@H](CCC(N)=O)C(=O)O)NC(=O)[C@H]([C@@H](C)O)NC(=O)[C@@H]3CSSC[C@H](NC(=O)[C@H](CCC(=O)O)NC(=O)[C@H](CC(N)=O)NC(=O)[C@H](CCCCN)NC(=O)[C@H](CC(N)=O)NC(=O)[C@H](Cc4ccccc4)NC(=O)[C@@H]4CCCN4C(=O)[C@@H](NC(=O)CNC(=O)[C@H](Cc4ccccc4)NC(=O)CN)CSSC[C@H](NC(=O)[C@H](Cc4ccccc4)NC(=O)CNC(=O)[C@H](Cc4ccccc4)NC(=O)[C@H](CCCCN)NC(=O)[C@H](CCCNC(=N)N)NC(=O)CNC1=O)C(=O)N[C@@H](C)C(=O)NCC(=O)N1CCC[C@H]1C(=O)N[C@@H](CC(C)C)C(=O)N[C@@H](CCCNC(=N)N)C(=O)N[C@@H](C)C(=O)N[C@@H]([C@@H](C)O)C(=O)N3)C(=O)N[C@@H](Cc1c[nH]cn1)C(=O)N[C@@H](C)C(=O)N[C@@H](Cc1c[nH]cn1)C(=O)N2 [rE8K] (H-GFGCPFNKNECHAHCLSIGRKFGFCAGPLRATCTCGKQ-OH; disulfide 4-25, 11-33, 15-35)
Kd (SARS−CoV−2 Spike RBD): 1900 ± 570 nM
